These results are taken from US20190086302A1, “COMPOSITION FOR PREPARING BIOLOGICAL MATERIAL HAVING EXCELLENT LIGHT TRANSMISSIVITY AND USE OF COMPOSITION” (RIKEN, priority 2016, published 2019).

A short description of series [1]: Absorbance of chemical solution at 400 nm (OD400). It counts as physicochemical.
The nature of the next series: pH of chemical solution. The series is classed as physicochemical.
The subject of a further series is bovine coagulated blood. As to the kind of experiment: Decoloring screening: heme eluted from PFA-fixed bovine coagulated blood, absorbance of supernatant. Conditions: Table 2, 10 wt % aqueous solution, 37° C. overnight; for 700 nm calibrated 420 nm Average: decoloring activity OD420-OD700 of supernatant. The procedure:
A high-throughput screening system for evaluating the decoloring ability of various compounds was constructed. The screening system involved adding an aqueous solution of each compound to bovine coagulated blood and then measuring the absorbance of heme collected in the supernatant.
Specifically, to bovine blood, an equal amount of 8% PFA solution was added, and reacted at 4° C. overnight. The mixed liquid was centrifuged at 1500×g for 5 minutes, and the supernatant containing PFA was discarded. Then, the same amount of PBS as the original volume of blood was added to prepare a coagulated blood sample. To 150 μL of 10 wt % aqueous solution of each compound, 50 μL of the coagulated blood sample was added, and reacted at 37° C. overnight. The reaction solution was centrifuged at 1500×g for 5 minutes, and then 100 μL of the supernatant was added to a plate so as to be subjected to absorbance measurement. A sample which is suspended in water instead of being dissolved in the water has a weak decoloring effect, but none the less has a high absorbance value. […]

A further series concerns mouse hemisphere. As to the kind of experiment: Delipidation and clearing of mouse hemisphere. Conditions: basic chemicals with pH of 11 to 12; 10 wt %, 37° C., 3 days, then CUBIC-2A. The procedure:
Subsequently, the delipidation efficiency of the series of compounds in mammalian tissue was examined. […] The transmittance of the brain tissue was measured, and then the brain tissue was washed with PBS and was disrupted. […] It was thus shown that the above basic chemicals and some neutral chemicals were better than the detergents from the viewpoint of permeability with respect to tissue. […] Subsequently, the mouse hemisphere was subjected to refractive index adjustment with CUBIC-2A. […] Accordingly, #0414 (N-butyldiethanolamine) was selected as a highly-efficient delipidation chemical.

The test system of another series is mouse spleen. As to the kind of experiment: Decoloring of mouse spleen (OD420 of supernatant, transmissive image). The conditions noted are these: 10 wt % solution, 37° C. overnight.
The next series concerns mouse brain. As to the kind of experiment: Swelling and clearing of delipidated mouse brain. The conditions noted are these: brain delipidated with CUBIC-1, shaken 3 days.
Where [2] appears, read: Table 2, absorbance of chemical solution at 400 nm.

Structures can show the parent of a compound that is named as a salt. Where two headings read alike, the source gives them in different places.

Consider `CNCC(O)c1cccc(O)c1.Cl` (racemic) [#1142, DL-Phenylephrine hydrochloride], for which the OD400 in series [1] was found to be 0.060. This molecule also yielded a pH in the series “pH of chemical solution” of 6.7. Molecule `Cl.O=C(O)CCP(CCC(=O)O)CCC(=O)O` [#0197, Tris(2-carboxyethyl)phosphine hydrochloride] yielded a 400 nm in series [1] (setting [2]) of 0.047. Further, in “pH of chemical solution” (Table 2, chemical solution), the pH is given as 2.3. As to `CN(C)CCSSCCN(C)C` [#0295, Bis(2-dimethylaminoethyl) disuflide dihydrochloride], the OD400 in series [1] (Table 3) amounted to 0.047. Further, in the series “pH of chemical solution” (Table 3), the pH is on record as 5.3. On the same counts, the results for `CCCC[N+](CCCC)(CCCC)Cc1ccccc1.[Cl-]` [#0307, Benzyltributylammonium chloride] are 0.048 and 7.0.

As to `CCCCCCCCCCCCCC[N+](C)(C)Cc1ccccc1` [#0362, Benzyldimethyltetradecylammonium chloride hydrate], in the series on bovine coagulated blood, the “Integrated value 500-700 nm Average” value is 1.74 and the “700 nm calibrated 420 nm Average” value turned out to be 2.13. The molecule also registered a 400 nm in series [1] (setting [2]) of 0.053. Further, the pH in the series “pH of chemical solution” (Table 2, chemical solution) came to 6.6. Turning to `CN(CCCN)CCCN` [#0380, 3,3′-Diamino-N-methyldipropylamine], the 400 nm in series [1] (setting [2]) is 0.065. Moreover, the pH in the series “pH of chemical solution” (Table 2, chemical solution) is given as 13.0. With `OCCNCc1ccccc1` [#0389, N-Benzylethanolamine], the “transparency of mouse hemispheres” value with mouse hemisphere is “selected”. Regarding `NCC1CCOCC1` [#0407, 4-Aminomethyltetrahydropyran], the 400 nm in series [1] (setting [2]) was found to be 0.049.

`CCCCN(CCO)CCO` [#0414, N-Butyldiethanolamine]: in the series on mouse hemisphere, the “transparency of mouse hemispheres” value is reported as “selected”.

Take `[Cl-].c1ccc(C[P+](c2ccccc2)(c2ccccc2)c2ccccc2)cc1` [#0425, Benzyltriphenylphosphonium chloride]: the 400 nm in series [1] (setting [2]) came to 0.048. In addition, in the series “pH of chemical solution” (Table 2, chemical solution), the pH came to 9.3. In the case of `CC(C)(C)CC(C)(C)c1ccc(OCCOCC[N+](C)(C)Cc2ccccc2)cc1` [#0441, Benzethonium chloride], the 400 nm in series [1] is 0.049. In the series “pH of chemical solution”, the pH is 6.4. In turn, `C1CCC2=NCCCN2CC1` [#0594, 1,8-Diazabicyclo[5.4.0]-7-undecene] came in with a 400 nm in series [1] (setting [2]) of 0.05. The pH in “pH of chemical solution” (Table 2, chemical solution) turned out to be 13.5. `CCCCCCCCCCCC[n+]1ccccc1` [#0635, 1-Dodecylpyridinium chloride]: in the series with bovine coagulated blood, the “Integrated value 500-700 nm Average” value worked out at 3.67 and the “700 nm calibrated 420 nm Average” value came out at 3.66. In series [1] (setting [2]), `Cc1cc(=O)n(-c2ccccc2)n1C` [#0640, 2,3-Dimethyl-1-phenyl-5-pyrazolone] came in with a 400 nm of 0.048. Also, the OD400 in series [1] (Table 3) was found to be 0.048. Also, the pH is 7.5 in “pH of chemical solution” (Table 2, chemical solution) and 7.5 in “pH of chemical solution” (Table 3). `C[n+]1ccc(-c2cc[n+](C)cc2)cc1` [#0652, 1,1′-Dimethyl-4,4′-bipyridinium dichloride] yielded a 400 nm in series [1] (setting [2]) of 0.082. The pH in the series “pH of chemical solution” (Table 2, chemical solution) is recorded as 6.0. `CCC(N)CCN` (centres unmarked) [#0678, 1,3-Diaminopentane] yielded a 400 nm in series [1] (setting [2]) of 0.048. `CCCCCCCCCCCC[N+](C)(C)CCCS(=O)(=O)O` [#0694, Dodecyldimethyl(3-sulfopropyl)ammonium hydroxide]: the 400 nm in series [1] (setting [2]) is 0.55; in series [1] (Table 2, absorbance of chemical solution at 400 nm, listed as #0661), 0.051. Also, the pH in the series “pH of chemical solution” (Table 2, chemical solution, listed as #0661) came to 6.5.

Turning to `NCCCNCCCN` [#0785, 3,3′-Diaminodipropylamine], the 400 nm in series [1] (setting [2]) is on record as 0.05. In series [1] (Table 3), this molecule gave an OD400 of 0.05. Besides, the pH is given as 13.8 in “pH of chemical solution” (Table 2, chemical solution) and 13.8 in the series “pH of chemical solution” (Table 3). On to `CN(C)CCOC(c1ccccc1)c1ccccc1.Cl` [#0909, Diphanhydramine hydrochloride], for which the OD400 in series [1] (Table 3) is 0.048. The molecule further gave a pH in “pH of chemical solution” (Table 3) of 7.0. As to `CCn1ccnc1` [#0938, 1-Ethylimidazole], the “mouse spleen decoloring activity” value in the series with mouse spleen is reported as “highest mouse spleen decoloring activity”. Regarding `NC[C@H](O)[C@@H](O)[C@H](O)[C@H](O)CO` [#0956, D-Glucoomine (FocusClear ™), reference compound], the OD400 in series [1] (Table 3) was determined as 0.280.

On to `CCCCCCCCCCCC[N+](C)(C)C` [#1021, Dodecyltrimethylammonium chloride], for which the 400 nm in series [1] (setting [2]) amounted to 0.048. The same molecule displayed a pH in the series “pH of chemical solution” (Table 2, chemical solution) of 7.5. In the same order, the values of `OCCN1CC1` [#1061, 1-(2-Hydroxyethyl)ethyleneimine] are 0.048 and 13.1. Turning to `NCC(O)CN` [#1062, 1,3-Diamino-2-propanol], in the series on bovine coagulated blood, the “Integrated value 500-700 nm Average” value was 0.50. In turn, `c1cnccn1` [#1085, Pyrazine] came in with a 400 nm in series [1] (setting [2]) of 0.051. Further, the pH in “pH of chemical solution” (Table 2, chemical solution) is on record as 8.6.

As for `C1CCC2=[N+](CC1)CCCN2.O=C1N=C([O-])c2ccccc21` [#1181, Phtalimide DBU salt], the OD400 in series [1] (Table 3) turned out to be 0.049. Moreover, the pH in the series “pH of chemical solution” (Table 3) is recorded as 6.0. Molecule `CCCCCCCCCCCCCCCC[N+](C)(C)C` [#1235, Hexadecyltrimethylammonium Chloride] displayed a 400 nm in series [1] of 0.048. In “pH of chemical solution”, the pH came out at 6.6. Molecule `CC(CN)CCCN` (centres unmarked) [#1267, 2-Methyl-1,5-diaminopentane] had a pH in “pH of chemical solution” (Table 2, chemical solution) of 12.8. Turning to `CNC(=O)c1cccnc1` [#1283, N-Methylnicotinamide], the “700 nm calibrated 420 nm Average” value in the series with bovine coagulated blood is 2.96. The same molecule came in with an OD400 in series [1] (Table 3) of 0.003. For `c1c[nH]cn1` [#1352, imidazole], the “swelling of mouse brain” value in the series on mouse brain is given as “high-degree of swelling”. With `C[C@H](CCC(=O)[O-])[C@H]1CC[C@H]2[C@@H]3CC[C@@H]4C[C@H](O)CC[C@]4(C)[C@H]3C[C@H](O)[C@]12C.[Na+]` [#1507, Sodium deoxycholate], the pH in the series “pH of chemical solution” (Table 2, chemical solution, listed as #0562) amounted to 8.3.

Take `CCN(CC)CCO` [#1575, 2-Diethylaminoethanol]: in series [1] (setting [2]), the 400 nm is recorded as 0.06. The pH in “pH of chemical solution” (Table 2, chemical solution) was found to be 12.8. In series [1] (Table 3), `Cc1cccc(C)c1NC1=NCCCS1.Cl` [#1612, Xylazine hydrochloride] had an OD400 of 0.063. The molecule further registered a pH in the series “pH of chemical solution” (Table 3) of 6.8. Take `C[N+](C)(C)Cc1ccccc1.[OH-]` [#03887, Benzyltrimethylammonium hydroxide]: the 400 nm in series [1] (setting [2]) is on record as 0.054. In addition, in “pH of chemical solution” (Table 2, chemical solution, listed as #0398), the pH is reported as 12.9. Take “Dodacene-1 LAS (JIS K 3361-1990) [#0672]”: the 400 nm in series [1] (setting [2]) is 0.081. Also, the pH in “pH of chemical solution” (Table 2, chemical solution) is given as 5.9. With Hydrazine carbonate [#1052], the OD400 in series [1] is listed as 0.047. The molecule also displayed a pH in the series “pH of chemical solution” of 10.2.

In turn, Tween ® 40 [#1465] yielded a 400 nm in series [1] (setting [2]) of 0.083. Moreover, the pH in “pH of chemical solution” (Table 2, chemical solution) is reported as 6.4.
